In the NIST ThermoML archive (doi:10.1016/j.fluid.2014.07.036):
Numbers after ± are expanded uncertainties.

Assay: refractive index (other wavelength) (dimensionless); xn = mol fraction of the nth substance listed
Details: 85 kPa, Liquid, Wavelength=632.8 nm, minimum deviation angle

CCCCCCCC[n+]1ccn(C)c1.F[B-](F)(F)F [1-methyl-3-octylimidazolium tetrafluoroborate] + CCCCCCO
Details | refractive index
289.88 K, x1 = 0.004 | 1.4182 ± 0.0002
289.88 K, x1 = 0.354 | 1.4268 ± 0.0002
290.62 K, x1 = 0.007 | 1.418 ± 0.0002
290.62 K, x1 = 0.346 | 1.4264 ± 0.0002
291.35 K, x1 = 0.01 | 1.4178 ± 0.0002
291.35 K, x1 = 0.338 | 1.426 ± 0.0002
292.06 K, x1 = 0.009 | 1.4175 ± 0.0002
292.06 K, x1 = 0.325 | 1.4255 ± 0.0002
292.78 K, x1 = 0.011 | 1.4173 ± 0.0002
292.78 K, x1 = 0.317 | 1.4251 ± 0.0002
293.48 K, x1 = 0.014 | 1.4171 ± 0.0002
293.48 K, x1 = 0.31 | 1.4247 ± 0.0002
294.37 K, x1 = 1 | 1.4327 ± 0.0003
294.83 K, x1 = 0.018 | 1.4167 ± 0.0002
294.83 K, x1 = 0.289 | 1.4238 ± 0.0002
295.51 K, x1 = 0.02 | 1.4165 ± 0.0002
295.51 K, x1 = 0.282 | 1.4234 ± 0.0002
295.86 K, x1 = 1 | 1.4323 ± 0.0003
296.12 K, x1 = 0.021 | 1.4163 ± 0.0002
296.12 K, x1 = 0.269 | 1.4229 ± 0.0002
296.61 K, x1 = 0.024 | 1.4162 ± 0.0002
296.61 K, x1 = 0.263 | 1.4226 ± 0.0002
297.04 K, x1 = 0.026 | 1.4161 ± 0.0002
297.04 K, x1 = 0.252 | 1.4222 ± 0.0002
297.21 K, x1 = 1 | 1.4319 ± 0.0003
297.39 K, x1 = 0.027 | 1.416 ± 0.0002
297.39 K, x1 = 0.245 | 1.4219 ± 0.0002
297.66 K, x1 = 0.031 | 1.416 ± 0.0002
297.66 K, x1 = 0.24 | 1.4217 ± 0.0002
297.92 K, x1 = 0.034 | 1.416 ± 0.0002
297.92 K, x1 = 0.236 | 1.4215 ± 0.0002
298.17 K, x1 = 0.034 | 1.4159 ± 0.0002
298.17 K, x1 = 0.227 | 1.4212 ± 0.0002
298.38 K, x1 = 0.037 | 1.4159 ± 0.0002
298.38 K, x1 = 0.222 | 1.421 ± 0.0002
298.57 K, x1 = 0.042 | 1.416 ± 0.0002
298.57 K, x1 = 0.221 | 1.4209 ± 0.0002
298.73 K, x1 = 0.044 | 1.416 ± 0.0002
298.73 K, x1 = 0.219 | 1.4208 ± 0.0002
298.88 K, x1 = 0.046 | 1.416 ± 0.0002
298.88 K, x1 = 0.213 | 1.4206 ± 0.0002
298.93 K, x1 = 1 | 1.4313 ± 0.0003
299.01 K, x1 = 0.045 | 1.4159 ± 0.0003
299.01 K, x1 = 0.207 | 1.4204 ± 0.0002
299.12 K, x1 = 0.049 | 1.416 ± 0.0002
299.12 K, x1 = 0.208 | 1.4204 ± 0.0002
299.21 K, x1 = 0.05 | 1.416 ± 0.0002
299.21 K, x1 = 0.202 | 1.4202 ± 0.0002
299.37 K, x1 = 0.056 | 1.4161 ± 0.0002
299.37 K, x1 = 0.196 | 1.42 ± 0.0002
299.44 K, x1 = 0.057 | 1.4161 ± 0.0002
299.44 K, x1 = 0.193 | 1.4199 ± 0.0002
299.5 K, x1 = 0.061 | 1.4162 ± 0.0002
299.5 K, x1 = 0.194 | 1.4199 ± 0.0002
299.55 K, x1 = 0.061 | 1.4162 ± 0.0002
299.55 K, x1 = 0.191 | 1.4198 ± 0.0002
299.6 K, x1 = 0.062 | 1.4162 ± 0.0002
299.6 K, x1 = 0.188 | 1.4197 ± 0.0002
299.66 K, x1 = 0.063 | 1.4162 ± 0.0002
299.66 K, x1 = 0.184 | 1.4196 ± 0.0002
299.7 K, x1 = 0.067 | 1.4163 ± 0.0002
299.7 K, x1 = 0.181 | 1.4195 ± 0.0003
299.74 K, x1 = 0.067 | 1.4163 ± 0.0002
299.74 K, x1 = 0.178 | 1.4194 ± 0.0003
299.79 K, x1 = 0.071 | 1.4164 ± 0.0002
299.79 K, x1 = 0.175 | 1.4193 ± 0.0003
299.83 K, x1 = 0.075 | 1.4165 ± 0.0002
299.83 K, x1 = 0.175 | 1.4193 ± 0.0003
299.86 K, x1 = 0.075 | 1.4165 ± 0.0002
299.86 K, x1 = 0.172 | 1.4192 ± 0.0002
299.9 K, x1 = 0.079 | 1.4166 ± 0.0002
299.9 K, x1 = 0.169 | 1.4191 ± 0.0002
299.95 K, x1 = 0.083 | 1.4167 ± 0.0002
299.95 K, x1 = 0.165 | 1.419 ± 0.0002
299.97 K, x1 = 0.084 | 1.4167 ± 0.0002
299.97 K, x1 = 0.158 | 1.4188 ± 0.0002
299.99 K, x1 = 0.087 | 1.4168 ± 0.0002
299.99 K, x1 = 0.155 | 1.4187 ± 0.0002
300 K, x1 = 0.091 | 1.4169 ± 0.0002
300 K, x1 = 0.155 | 1.4187 ± 0.0002
300.02 K, x1 = 0.091 | 1.4169 ± 0.0002
300.02 K, x1 = 0.148 | 1.4185 ± 0.0002
300.03 K, x1 = 0.095 | 1.417 ± 0.0002
300.03 K, x1 = 0.148 | 1.4185 ± 0.0002
300.04 K, x1 = 0.098 | 1.4171 ± 0.0002
300.04 K, x1 = 0.144 | 1.4184 ± 0.0002
300.05 K, x1 = 0.102 | 1.4172 ± 0.0002
300.05 K, x1 = 0.141 | 1.4183 ± 0.0002
300.06 K, x1 = 0.102 | 1.4172 ± 0.0002
300.06 K, x1 = 0.105 | 1.4173 ± 0.0002
300.06 K, x1 = 0.109 | 1.4174 ± 0.0002
300.06 K, x1 = 0.134 | 1.4181 ± 0.0002
300.06 K, x1 = 0.137 | 1.4182 ± 0.0002
300.06 K, x1 = 0.141 | 1.4183 ± 0.0002
300.67 K, x1 = 1 | 1.4309 ± 0.0003
301.31 K, x1 = 0.1 | 1.4166 ± 0.0002
302.86 K, x1 = 0.1 | 1.416 ± 0.0002
302.95 K, x1 = 1 | 1.4303 ± 0.0003
303.16 K, x1 = 0.2 | 1.4188 ± 0.0002
304.31 K, x1 = 0.2 | 1.4183 ± 0.0002
304.45 K, x1 = 0.1 | 1.4155 ± 0.0002
304.54 K, x1 = 0.4 | 1.4225 ± 0.0002
304.54 K, x1 = 0.497 | 1.4239 ± 0.0002
304.6 K, x1 = 1 | 1.4298 ± 0.0003
305 K, x1 = 0.3 | 1.4202 ± 0.0002
305.51 K, x1 = 0.2 | 1.4179 ± 0.0002
305.52 K, x1 = 0.6 | 1.4251 ± 0.0002
305.52 K, x1 = 0.699 | 1.4263 ± 0.0003
305.69 K, x1 = 0.497 | 1.4236 ± 0.0002
305.73 K, x1 = 0.4 | 1.4221 ± 0.0002
305.93 K, x1 = 0.3 | 1.4199 ± 0.0002
306.12 K, x1 = 0.1 | 1.4148 ± 0.0002
306.24 K, x1 = 1 | 1.4293 ± 0.0003
306.66 K, x1 = 0.2 | 1.4175 ± 0.0002
306.68 K, x1 = 0.699 | 1.426 ± 0.0003
307.04 K, x1 = 0.6 | 1.4247 ± 0.0002
307.07 K, x1 = 0.3 | 1.4196 ± 0.0002
307.1 K, x1 = 0.891 | 1.428 ± 0.0003
307.23 K, x1 = 0.4 | 1.4216 ± 0.0002
307.73 K, x1 = 0.497 | 1.4229 ± 0.0002
307.83 K, x1 = 0.1 | 1.4142 ± 0.0002
307.92 K, x1 = 0.2 | 1.417 ± 0.0002
308.25 K, x1 = 0.699 | 1.4255 ± 0.0003
308.37 K, x1 = 0.798 | 1.4267 ± 0.0003
308.59 K, x1 = 0.6 | 1.4242 ± 0.0002
308.7 K, x1 = 0.3 | 1.419 ± 0.0002
308.74 K, x1 = 0.4 | 1.4211 ± 0.0002
308.75 K, x1 = 0.891 | 1.4276 ± 0.0003
309.13 K, x1 = 0.497 | 1.4225 ± 0.0002
309.18 K, x1 = 0.1 | 1.4137 ± 0.0002
309.19 K, x1 = 0.2 | 1.4165 ± 0.0002
309.66 K, x1 = 0.798 | 1.4264 ± 0.0003
309.72 K, x1 = 0.699 | 1.4251 ± 0.0003
310.02 K, x1 = 0.6 | 1.4237 ± 0.0002
310.19 K, x1 = 0.891 | 1.4272 ± 0.0003
310.59 K, x1 = 0.3 | 1.4184 ± 0.0002
310.6 K, x1 = 0.4 | 1.4204 ± 0.0002
310.63 K, x1 = 0.798 | 1.4261 ± 0.0003
310.77 K, x1 = 0.497 | 1.422 ± 0.0002
311.29 K, x1 = 0.699 | 1.4246 ± 0.0003
311.31 K, x1 = 0.891 | 1.4268 ± 0.0003
311.64 K, x1 = 0.6 | 1.4233 ± 0.0002
312.14 K, x1 = 0.3 | 1.4179 ± 0.0002
312.14 K, x1 = 0.4 | 1.4199 ± 0.0002
312.15 K, x1 = 0.798 | 1.4257 ± 0.0003
312.81 K, x1 = 0.699 | 1.4242 ± 0.0003
312.9 K, x1 = 0.497 | 1.4214 ± 0.0002
312.9 K, x1 = 0.6 | 1.4229 ± 0.0002
313.38 K, x1 = 0.891 | 1.4263 ± 0.0003
313.81 K, x1 = 0.798 | 1.4253 ± 0.0003
315.28 K, x1 = 0.798 | 1.4248 ± 0.0003
315.28 K, x1 = 0.891 | 1.4258 ± 0.0003
